Laboratory results reported in patent US7022680B2, “Inhibitors of ADP-ribosyl transferases, cyclases, and hydrolases” (Albert Einstein College of Medicine of Yeshiva University, priority 2002, dated 2006).
Several values for one entry are separate records, joined by “and”; a condition that tells them apart may be missing. Equal values may be shown once.

Legend:
[1] = molecular target: T1, human CD38 (Homo sapiens, UniProt P28907); assay: Competitive and slow-onset inhibition of CD38-catalyzed conversion of NGD+ to cGDPR (295 nm absorbance); format: biochemical; parameters: The soluble domain of human CD38 catalyzes the conversion of NAD^+ to cyclic-ADP-ribose; conditions: even at millimolar concentrations (data not shown)
T1 sequence (P28907 43-300 limits assumed): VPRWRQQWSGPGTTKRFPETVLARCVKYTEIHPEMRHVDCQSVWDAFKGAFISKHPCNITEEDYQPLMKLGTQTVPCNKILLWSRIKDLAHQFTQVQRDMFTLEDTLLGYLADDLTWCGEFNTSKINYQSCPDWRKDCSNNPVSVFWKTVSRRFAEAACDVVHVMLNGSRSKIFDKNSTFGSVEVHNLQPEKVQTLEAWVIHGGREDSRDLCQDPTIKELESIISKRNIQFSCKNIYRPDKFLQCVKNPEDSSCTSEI
Description: Determination of Ki and kon by competitive method. To 1 mL solutions of 50 mM potassium phosphate pH 7.2 and 100 μM NGD^+ containing, 50, 25, 12.5, and 6.25 and 0 μM inhibitor 1 was added 2 μL of 7 μM CD38. Reaction progress upon initiation by enzyme addition was monitored by measurement of 295 nm absorbance. The initial slopes were used to determine the Ki value, and all points of the experiment were fit to the equation A(t)=vt+(b−v)(1−exp(−kt))/k+A0 where k is the observed rate constant, b is the initial rate, v is the final rate and A0 is the initial absorbance was used to evaluate kon.
Determination of Competitive Inhibition by Initial Rates: The inhibitors 1–3 were evaluated for inhibition of CD38 enzymatic activity using a spectrophotometric assay. CD38 catalyzes the conversion of NGD^+ to cyclic-GDP ribose (cGDPR, Scheme 4) and product formation can be monitored by 295 nm absorbance measurement. […] A similar reaction containing 40 μM NGD^+ at several concentrations of 2 was also performed (FIG. 3).
Slow Phase Inhibition. […] This slow phase was not due to substrate depletion and was attributable to a kinetic process leading to progressive inhibition of the enzyme. The “slow-onset” absorbance curves could be fit using the equation At=vit+(vi−vf)(1−exp(−kt))/k+A0 where At is absorbance, vi is initial velocity, vf is final velocity, t is time in s, k is the rate of the slow onset process and A0 is absorbance of the sample at initial time. These fits are shown by the solid lines in FIG. 2 and FIG. 3. The rate constant for the slow phase could be obtained from the average value of k determined from the separate fits. The value of k for 1 was determined to be 0.0042±0.001 s^−1 and the value of k for 2 was determined to be 0.0083±0.002 s^−1. The parameter k is defined as kon in Scheme 5. [drawing 19]

[2] = molecular target: T2, CD38 (Homo sapiens, UniProt P28907); conditions: 37° C.; cited from earlier work
T2 sequence (P28907 1-300): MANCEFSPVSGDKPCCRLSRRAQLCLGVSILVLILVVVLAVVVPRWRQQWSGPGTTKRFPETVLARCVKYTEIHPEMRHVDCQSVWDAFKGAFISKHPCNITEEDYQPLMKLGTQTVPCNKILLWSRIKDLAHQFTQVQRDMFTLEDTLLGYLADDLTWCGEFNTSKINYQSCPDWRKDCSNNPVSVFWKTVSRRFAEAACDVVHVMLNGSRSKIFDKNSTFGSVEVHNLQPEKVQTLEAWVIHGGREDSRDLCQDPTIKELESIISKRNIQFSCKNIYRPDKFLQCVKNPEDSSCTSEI

[3] = molecular target: T1, human CD38; assay: Radiochemical labeling of CD38 by [2'-3H] inhibitor (gel filtration, scintillation counting); format: binding; parameters: The soluble domain of human CD38 catalyzes the conversion of NAD^+ to cyclic-ADP-ribose; conditions: 9 μM inhibitor, 1.2 μM CD38 monomer, pH 7.5, 25° C.
Description: Radiochemical measurement of inhibitor binding. […] Inhibitor at 9 μM with specific radioactivity of 866 cpm/nmol, was incubated with 1.2 μM CD38 (monomer) in 1 mL 50 mM potassium phosphate (pH 7.5). The reactions were started by enzyme addition and quenched by freezing with a dry ice/acetone bath at 30, 60 90, 120, 250, 500, and 1000 s. Cooled (0° C.) gel filtration columns were used to separate protein with cooled (0° C.) 10 mM potassium phosphate as eluant. The frozen fraction were quickly thawed, applied to these columns and fractions collected in 1 mL volumes over the course of several minutes. Scintillation fluid (9 mL) was then added to each 1 mL fraction and samples counted. […] The observed radioactivity was fit using the equation A(t)=A0(1−exp(−kt))+B. where A0 is activity at reaction completion, k is the observed pseudo-first order rate constant and B is the activity of the blank.
Titration of Enzyme with [2′-^3H]Inhibitor. CD38 inactivation was accomplished using a radiolabeled inhibitor to assess inhibitor interactions with the enzyme independent from inhibition of the catalytic activity. This method allows the determination of the stoichiometry of covalent labeling, and detects cooperativity at multiple sites. […] (FIG. 8) within reasonable agreement with the rate constant for inactivation in kinetic assays of inhibition (kon=0.0042 s^−1 at 19° C.). […]

[4] = molecular target: T1, human CD38; assay: Off-rate / recovery of inhibited CD38 in excess NGD+; format: biochemical; parameters: The soluble domain of human CD38 catalyzes the conversion of NAD^+ to cyclic-ADP-ribose; conditions: inhibited CD38 added to excess NGD+, 19° C.; for koff: read-out: koff, rate constant of recovery from inhibition
Description: Off-Rate Measurement. 500 nM CD38 in 50 mM potassium phosphate pH 7.2 was incubated with 15 μM inhibitor for 30 min at room temperature. 5 μL of the enzyme inhibitor solution was added to a cuvette containing 1 mL reaction of 50 mM potassium phosphate pH 7.5 containing 300 μM NGD^+ pre-chilled to 19° C. Production of […] was determined by monitoring 295 nm absorbance. The absorbance was fit to the equation A(t)=vt+(b−v)(1−exp(−kt))/k+A0 where A(t) is the absorbance, k is the rate constant of recovery, b is the initial rate, v is the final rate and A0 is the initial absorbance. A control lacking inhibitor but in all other respects identical was also run.
Recovery from Inhibition. […] The inhibitor off-rate provides the final parameter in the equation koff/kon*Ki=Ki(total) which is valid for the kinetic scheme of slow-onset inhibition shown in Scheme 5. This rate was obtained by a recovery protocol in which inhibited CD38 enzyme (by either 1 or 2) was added to a 200 μM solution of NGD^+. The solution 295 nm absorbance is monitored spectrophotometrically to assay conversion of NGD^+ to cGDPR as a consequence of regain of CD38 catlytic activity. […] The absorbance curves with the same equation used for slow-onset: At=vit+(vi−vf)(1−exp(−kt))/k+A0 where At is absorbance, vi is initial velocity, vf is final velocity, t is time in s, k is the rate of the recovery rate constant and A0 is the absorbance of the sample at initial time. The rate constant for the recovery phase was obtained from the average value of k determined from the separate fits. The value of koff for 1 was determined to be 1.5×10^−5 s^−1 and for 2 was determined to be 2.5×10^−5 S^−1.

[5] = Solution hydrolysis of the inhibitor; format: physicochemical; conditions: 10 mM potassium phosphate, pH 6.5, 25° C.
From the text: Without being bound to any particular mechanism, it is believed that the electron-contributing moiety on A stabilizes the compounds of the invention such that they are less susceptible to hydrolysis from the rest of the compound. For example, the compound β-1′-5-methyl-nicotinamide-2′-deoxyribose (established as an effective inhibitor of CD38 in the Example) was compared with β-1′-nicotinamide-2′-deoxyribose in its ability to resist solution hydrolysis. […] This difference in chemical stability means that β-1′-nicotinamide-2′-deoxyribose is 50% depleted from solution in 2 hours, whereas β-1′-5-methyl-nicotinamide-2′-deoxyribose is not hydrolyzed by 50% until 12 hours. This improved chemical stability improves the value of the compound, since it is available for action for longer periods of time in biological systems due to resistance to hydrolytic breakdown.

[6] = molecular target: T1, human CD38; assay: CD38-catalyzed base exchange of 2 to 1 with nicotinamide, HPLC; format: biochemical; parameters: The soluble domain of human CD38 catalyzes the conversion of NAD^+ to cyclic-ADP-ribose; conditions: 75 μM 2, 1 μM CD38, nicotinamide, 19° C.
Description: Base-exchange reaction. […] These reactions were run separately in autosampler tubes held at 19° C. in a temperature regulated autosampler and assayed by multiinjection HPLC using 5 mM K2PO4H pH 5.0 and 2.5% MeOH as eluant. The quantity of 2 reacted and the quantity of 1 formed versus time was determined by integrations of the peaks for 1 and 2 with comparison to standards.

[7] = molecular target: T1, human CD38; conditions: CD38 preincubated with inhibitor 2; saturating nicotinamide
Description: 10 mL CD38 (1 μM) in K2PO4H was incubated with 2 (10 μM) for 30 minutes at room temperature and subsequently placed on ice. […] To a two syringe Applied Photophysics spectrophotometer in fluorescence mode was added inhibited enzyme to one syringe and NGD^+ solution to the other. Fluorescence was used to monitor cGDPR formation and the total fluorescence curves fit using the activity recovery equation F(t)=vt+(b−v) (1−exp(−kt))/k+F0 where k is the observed rate constant, b is the initial rate, v is the final rate and F0 is the initial absorbance.
A stopped flow, two syringe fitted spectrophotometer was used to perform the experiments. The fluorescence of cGDPR was measured as a function of time to generate curves that contain an exponential and a linear phase prior to substrate exhaustion. These curves were fit to the equation Ft=vft+(vi−vf)(1−exp (−kt))/k+F0 as previously defined.

Compound: NC(=O)c1ccc[n+](C2CC(O)C(CO)O2)c1 (single isomer, unassigned) [α isomer of 1]
- inhibition of CD38 conversion of NGD+ to cGDPR [1]: did not inhibit

Compound: Cc1cc(C(N)=O)c[n+](C2CC(O)C(CO)O2)c1 (single isomer, unassigned) [α isomer of 2]
- inhibition of CD38 conversion of NGD+ to cGDPR [1]: did not inhibit

Compound: NC(=O)c1ccc[n+]([C@@H]2O[C@H](COP(=O)(O)O)[C@@H](O)[C@H]2O)c1 [NMN^+]
- ratio of the rates of turnover of CD38 covalent intermediates, NMN+ versus ara-F-NMN+ [2]: ~10^7

Compound: [3H]C1[C@H]([n+]2cccc(C(N)=O)c2)O[C@H](CO)[C@H]1O (stereo partly shown) [[2′-^3H]-1, [2′-^3H]Nicotinamide deoxyriboside]
- rate constant of radiochemical labeling of CD38 (kchem) [3]: 0.01 s⁻¹

Compound: NC(=O)c1ccc[n+]([C@H]2C[C@H](O)[C@@H](CO)O2)c1 [inhibitor 1, nicotinamide-2′-deoxyriboside]
- koff, rate constant of recovery from inhibition [4]: 1.5e-05 s⁻¹
- koff [4]: ~2e-05 s⁻¹
- time until 50% depleted from solution by hydrolysis [5]: 2 h

Compound: Cc1cc(C(N)=O)c[n+]([C@H]2C[C@H](O)[C@@H](CO)O2)c1 [inhibitor 2, 5-methyl-nicotinamide-2′-deoxyriboside]
- kcat of base exchange (2 to 1) [6]: 0.007 s⁻¹
- koff, rate constant of recovery from inhibition [4]: 2.5e-05 s⁻¹
- koff [4]: ~2e-05 s⁻¹
- time until 50% depleted from solution by hydrolysis [5]: 12 h

Compound: OC[C@H]1O[C@@H]([n+]2ccccc2)C[C@@H]1O [inhibitor 3, pyridyl-2′-deoxyriboside]
- inhibition of CD38 conversion of NGD+ to cGDPR [1]: did not inhibit

Compound: NC(=O)c1cccnc1 [nicotinamide]
- maximum rate of rescue (kbase) [7]: 0.023 s⁻¹ and 0.024 s⁻¹
